Assay type in all cases: biochemical
The target of one assay is T1, Factor VIIa (Homo sapiens, UniProt P08709).
T1 construct: purchased Haemochrom Diagnostica GmbH (Essen, D)
T1 sequence (P08709 213-466 limits assumed): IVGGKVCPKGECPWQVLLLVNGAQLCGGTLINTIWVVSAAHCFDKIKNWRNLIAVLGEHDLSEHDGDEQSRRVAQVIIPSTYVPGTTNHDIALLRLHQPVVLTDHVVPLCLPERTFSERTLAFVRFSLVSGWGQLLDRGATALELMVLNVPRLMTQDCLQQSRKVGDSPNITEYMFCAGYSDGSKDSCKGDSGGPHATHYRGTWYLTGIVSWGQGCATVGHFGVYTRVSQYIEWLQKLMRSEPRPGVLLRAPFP
T1 sequence (P08709 61-212 partner limits assumed): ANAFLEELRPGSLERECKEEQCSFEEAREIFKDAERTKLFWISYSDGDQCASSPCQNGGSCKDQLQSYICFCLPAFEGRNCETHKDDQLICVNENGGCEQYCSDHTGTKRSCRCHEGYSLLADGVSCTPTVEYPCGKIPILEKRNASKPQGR
Put plainly: Determination of Ki values, chromogenic substrate, Dixon evaluation: Factor VIIa. As to conditions: 25° C., tris buffer pH 8.0, substrate CH3SO2-D-phe-Gly-Arg-pNA. The source says:
(§1) The inhibitors used here are the commercially available exemplary inhibitors Pefabloc tPA/Xa (2,7-bis(4-amidinobenzylidene)-cyclopeptanone-(1), Pentapharm Ltd. Basel, Switzerland), CJ-FXa (benzylsulphonyl-D-arginyl-glycyl-4-amidinobenzylamide, Haemochrom GmbH, Essen, Germany) and CJ-PK (benzylsulphonyl-D-seryl-carbobenzoxylsyl-4-amidinobenzylamide, Haemochrom GmbH, Essen, Germany). Research samples were available of DX-9065a ((+)-(2S)-2-[4-[[3S)-1-acetimidoyl-3-pyrrodinyl]oxy]phenyl]-3-[7-amidino-2-naphthyl]propanic acid, Daiichi Pharmaceutical Company Ltd., Tokyo, Japan), and Otamixaban (2-(R)-(3-carbamimidoylbenyzyl)-3-(R)-[4-(1-oxypyridin-4-yl)benzoylamino]-butyric acid-methylester, Sanofi-Aventis GmbH, Frankfurt, Germany), both of which are undergoing clinical tests. In order to examine the inhibitory action of these exemplarily used inhibitors on the blood coagulation factors plasma-kallikrein, VIIa, Xa, XIa and XIIa, the Ki values of the respective enzyme-inhibitor complexes were determined.
(§2) The enzymes were produced by Haemochrom Diagnostica GmbH (Essen, D) and were dissolved in 0.154 mol/l NaCl. The substrates (Pentapharm AG, Basel, CH) were dissolved in H2O and the inhibitor was dissolved in the above-mentioned tris buffer. The following substrates were used for the individual enzymes:
(§3) 200 μl of inhibitor solution were mixed with 25 μl of substrate for the determination and the reaction was started by the addition of 50 μl of enzyme. After a reaction time of 3-5 mins. 25 μl of acetic acid (50%) were added and the extinction was measured at 405 nm with a microplate reader (iEMS Reader MF 12401, Labsystems, Helsinki, Finland). The evaluation was carried out graphically according to Dixon (Biochem. J., 55, 170, 1953).
(§4) The enzymes were produced by Haemochrom Diagnostica GmbH (Essen, D), and only thrombin was manufactured in our own laboratory according to Walsmann (Pharmazie 23, 401-402, 1968). All the enzymes were dissolved in 0.154 mol/l NaCl. The substrates (Pentapharm AG, Basel, CH) were dissolved in H2O and the inhibitor was dissolved in the above-mentioned tris buffer. The following substrates were used for the individual enzymes:
(§5) 200 μl of inhibitor solution were mixed with 25 μl of substrate for the determination and the reaction was started by the addition of 50 μl of enzyme. After a reaction time of 3-5 mins. 25 μl of acetic acid (50%) were added and the extinction was measured at 405 nm with a microplate reader (iEMS Reader MF 1401, Labsystems, Helsinki, Finland). The evaluation was carried out graphically according to Dixon (Biochem. J., 55, 170, 1953).

The target of another assay is T2, Plasma-kallikrein (Homo sapiens, UniProt P03952).
T2 construct: purchased Haemochrom Diagnostica GmbH (Essen, D)
T2 sequence (P03952 391-638 limits assumed): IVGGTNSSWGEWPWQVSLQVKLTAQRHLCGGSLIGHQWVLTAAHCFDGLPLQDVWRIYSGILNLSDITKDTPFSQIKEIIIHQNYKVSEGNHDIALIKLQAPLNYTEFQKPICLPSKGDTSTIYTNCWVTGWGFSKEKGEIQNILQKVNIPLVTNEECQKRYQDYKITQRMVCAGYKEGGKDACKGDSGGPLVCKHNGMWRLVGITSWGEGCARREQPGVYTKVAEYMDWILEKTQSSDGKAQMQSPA
T2 sequence (P03952 20-390 partner limits assumed): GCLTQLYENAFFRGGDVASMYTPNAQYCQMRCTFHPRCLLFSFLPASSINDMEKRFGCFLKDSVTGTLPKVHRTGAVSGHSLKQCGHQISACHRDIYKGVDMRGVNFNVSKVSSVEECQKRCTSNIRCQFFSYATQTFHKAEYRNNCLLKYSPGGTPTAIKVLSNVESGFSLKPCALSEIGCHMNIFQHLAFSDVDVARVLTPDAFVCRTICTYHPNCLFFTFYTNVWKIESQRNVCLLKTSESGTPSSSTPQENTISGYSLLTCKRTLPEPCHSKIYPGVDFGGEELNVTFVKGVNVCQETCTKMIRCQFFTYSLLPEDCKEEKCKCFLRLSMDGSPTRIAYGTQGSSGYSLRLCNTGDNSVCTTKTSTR
The assay can be described thus: Determination of Ki values, chromogenic substrate, Dixon evaluation: plasma-kallikrein. The conditions noted are these: 25° C., tris buffer pH 8.0, substrate Bz-Pro-Phe-Arg-pNA; read-out: Ki PK (plasma-kallikrein).
Source text: In a particularly preferred embodiment the compound according to Formula (I) inhibits not only the blood coagulation factor XA but also thrombin and/or plasma kallikrein. […] Here too the Ki value stands for the dissociation constant of the respective enzyme-inhibitor complex. The determination of the Ki values of the inhibitors vis-a-vis thrombin and plasma kallikrein is preferably carried out in a similar manner to the determination, described above, of the Ki values of the inhibitors vis-a-vis the coagulation factor Xa, but in this case CH3SO2-D-HHT-gly-arg-pNA (with HHT=hexahydrothyrosin, and pNA=para-nitroaniline; sold under the commercial name Pefachrome tPA) are used as substrates in the case of thrombin and bz-pro-phe-arg-pNA (with bz=[…], and pNA=para-nitroaniline; sold under the commercial name Chromozym PK) in the case of plasma-kallikrein.
as §1, §2, §3, §4, §5

The next assay deals with T3, Factor XIIa (Homo sapiens, UniProt P00748).
T3 construct: purchased Haemochrom Diagnostica GmbH (Essen, D)
T3 sequence (P00748 373-615 limits assumed): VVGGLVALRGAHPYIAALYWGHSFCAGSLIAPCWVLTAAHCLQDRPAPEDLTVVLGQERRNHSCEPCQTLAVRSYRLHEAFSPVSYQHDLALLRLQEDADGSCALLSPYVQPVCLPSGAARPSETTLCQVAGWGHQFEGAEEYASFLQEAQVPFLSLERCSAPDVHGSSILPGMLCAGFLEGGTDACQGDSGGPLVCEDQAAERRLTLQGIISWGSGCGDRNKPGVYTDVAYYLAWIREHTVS
Put plainly: Determination of Ki values, chromogenic substrate, Dixon evaluation: Factor XIIa. The conditions noted are these: 25° C., tris buffer pH 8.0, substrate H-D-HHT-Gly-Arg-pNA.
Source text: as §1, §2, §3, §4, §5

A word on the Ki: it is the equilibrium dissociation constant of an inhibitor or competing ligand from its target. Take `COC(=O)[C@H](Cc1cccc(C(=N)N)c1)[C@@H](C)NC(=O)c1ccc(-c2cc[n+]([O-])cc2)cc1` (mixture of isomers) [Otamixaban, 2-(R)-(3-carbamimidoylbenyzyl)-3-(R)-[4-(1-oxypyridin-4-yl)benzoylamino]-butyric acid-methylester]: the Ki was 19 µM on Factor VIIa, 0.026 µM at Plasma-kallikrein and more than 1000 µM at Factor XIIa.
The corresponding values for `N=C(N)c1ccc(C=C2CCCCC(=Cc3ccc(C(=N)N)cc3)C2=O)cc1` [Pefabloc tPA/Xa, 2,7-bis(4-amidinobenzylidene)-cycloheptanone-(1)] are 140 µM, 0.72 µM and 0.36 µM.

Source of the values: patent publication US8129547B2, “Anticoagulation of human blood ex vivo” (priority 2006, dated 2012).
